Source: publication PMC6917776, “Discovery of a chemical probe for PRDM9” (Nature Communications, 2019)

Test system: H3K4me3 at known PRDM9 binding loci and control TSS loci
Assay: ChIP-qPCR of H3K4me3 in PRDM9-transfected HEK293T cells
Format: cell-based, human
Settings: for H3K4me3 ChIP-qPCR 2^-dCq (IP-Input) / 2^-dCq (H3K4me3 IP relative to H3): Replicate 2; for H3K4me3 ChIP-qPCR 2^-dCq (IP-Input): H3K4me3 antibody relative to H3; for <Cq>: mean of two wells, Antibody H3K4me3, Plasmid PRDM9WT, Figure 7 Replicate 2
Protocol: ChIP-qPCR assays were then conducted on known PRDM9 binding loci[26]. Ectopic expression of PRDM9^WT increased trimethylation of H3K4 (H3K4me3) at previously described PRDM9-specific intragenic and intergenic regions[26] (Fig. 7; Supplementary Fig. 12). […] The observed increases in H3K4me3 levels at intragenic and intergenic regions are therefore due directly to PRDM9 PR domain-dependent methylation activity, rather than through recruitment of other H3K4 methyltransferases or other indirect mechanisms.
ChIP qPCR analyses of H3K4me3 methylation levels of known PRDM9-bound loci and control loci. […] Concentrations used (µM) are indicated below each plot. (a–d) represent reported loci of PRDM9 methylation; (e, f) are transcriptional start sites (TSSs) which are not known loci of PRDM9 methylation. Data are normalized to total H3 and are presented as the mean ± upper and lower limits from two replicates. Representative plots of two independent experiments are shown in this figure. The coordinates and the genomic features associated with the assayed loci are indicated above each plot. Left Tailed Student's t-tests were performed by comparing DMSO (0 µM) treated cells to compound treated cells that have been transfected with the same plasmids. *p-value < 0.05 and **p-value < 0.01. Note that here we show a representative of two independent experiments (mean ± s.d of technical replicates) for our ChIP-qPCR experiments. Data obtained using this technique are inherently noisy due to stochastic differences in gene activity/histone positioning. Data are thus typically presented as representative rather than averaged. Source data are provided as a Source Data file.
HEK293T cells were transfected with 37.5 μg empty pcDNA3.1(+) vector (Invitrogen), or the same vector expressing either wild-type PRDM9 (PRDM9^WT) or a catalytically dead PRDM9 mutant (PRDM9^Mut) and 75 μL of Lipofectamine 2000 (Invitrogen) in 6 mL of Opti-MEM (GIBCO) for 48 h. […] ChIP assays were then performed as previously described. Briefly, cells were fixed in 1% formaldehyde and the fixation reaction was quenched in a final concentration of 0.1 M glycine. Cell pellets were first lysed in LB1 (50 mM HEPES-KOH pH 7.5, 140 mM NaCl, 1 mM EDTA, 10% Glycerol, 0.5% Igepal, 0.25% TritonX), washed once in LB2 Buffer (10 mM Tris-HCl pH 8, 200 mM NaCl, 1 mM EDTA, 0.5 mM EGTA) and finally sonicated in LB3 buffer (10 mM Tris-HCl pH 8, 100 mM NaCl, 1 mM EDTA, 0.5 mM EGTA, 0.1% Sodium deoxycholate, 0.5% N-laurosylsarcosine) using a bioruptor (Diagenode). Thereafter, 50 μg of chromatin was subjected to ChIP using the following antibodies purchased from Abcam: α-H3K4me3 (1:200, ab8580, lot:GR3207339-1) and α-H3 (1:250, ab1791, lot:GR300978-4). After extensive washing in RIPA wash buffer (50 mM HEPES-KOH pH 7.6, 100 mM LiCl, 1 mM EDTA, 1% Igepal, 0.7% Sodium Deoxycholate), DNA was eluted from beads. The eluted DNA was treated with RNase A and Proteinase K and purified using the QIAGEN PCR purification kit. qPCR was then carried out targeting the indicated loci (Supplementary Table 3). Upper and lower limits were defined by |2^−(dCq±s) − 2^−(∆Cq)|, where s = √((Standard deviation of Input Cq)^2 + (Standard deviation of Target Cq)^2). […]
formation. ChIP qPCR analyses of H3K4me3 methylation levels at known PRDM9-bound and control loci. Cells transfected with empty vector (negative control) or vectors overexpressing either wild-type PRDM9 (PRDM9 WT) or catalytically dead PRDM9 (PRDM9 MUT) were […]
Panels a-d represent reported loci of […]
(1 picture or pasted object on this page, not shown here)
PRDM9 methylation; e-f are TSSs which are not known sites of PRDM9 methylation. Data are normalized to total H3 and are presented as the mean ± upper and lower limits from two […]

## COc1cc(OC)cc(-c2noc(N3CCN(C)C4(CCN(c5ccnc(C)c5)CC4)C3)n2)c1 [MRK-740]
chr2:40281930-40282015 Intragenic (SLC8A1-AS1), Figure 7 C, PRDM9WT, Drug Conc. 10
  H3K4me3 ChIP-qPCR 2^-dCq (IP-Input): 2.181
chr2:40281930-40282015 Intragenic (SLC8A1-AS1), Empty Vector, Drug Conc. 5, Figure S12 C
  2^-dCq (H3K4me3 IP relative to H3): 0.9795
chr2:40281930-40282015 Intragenic (SLC8A1-AS1), PRDM9MUT, Drug Conc. 5, Figure S12 C
  2^-dCq (H3K4me3 IP relative to H3): 0.2048
chr2:40281930-40282015 Intragenic (SLC8A1-AS1), PRDM9WT, Drug Conc. 5, Figure S12 C
  2^-dCq (H3K4me3 IP relative to H3): 5.934
chr2:128811847-128811944 (Intergenic), Figure 7 A, Empty Vector, Drug Conc. 2.5
  H3K4me3 ChIP-qPCR 2^-dCq (IP-Input): 1.167
chr2:128811847-128811944 (Intergenic), Figure 7 A, Empty Vector, Drug Conc. 5
  H3K4me3 ChIP-qPCR 2^-dCq (IP-Input): 1.563
chr2:128811847-128811944 (Intergenic), Figure 7 A, Empty Vector, Drug Conc. 10
  H3K4me3 ChIP-qPCR 2^-dCq (IP-Input): 1.267
chr2:128811847-128811944 (Intergenic), Figure 7 A, PRDM9WT, Drug Conc. 2.5
  H3K4me3 ChIP-qPCR 2^-dCq (IP-Input): 4.007
chr2:128811847-128811944 (Intergenic), Figure 7 A, PRDM9WT, Drug Conc. 5
  H3K4me3 ChIP-qPCR 2^-dCq (IP-Input): 4.852
chr2:128811847-128811944 (Intergenic), Figure 7 A, PRDM9WT, Drug Conc. 10
  H3K4me3 ChIP-qPCR 2^-dCq (IP-Input): 1.932
chr2:128811847-128811944 (Intergenic), Empty Vector, Drug Conc. 5, Figure S12 A
  2^-dCq (H3K4me3 IP relative to H3): 1.563
chr2:128811847-128811944 (Intergenic), PRDM9MUT, Drug Conc. 5, Figure S12 A
  2^-dCq (H3K4me3 IP relative to H3): 0.3928
chr2:128811847-128811944 (Intergenic), PRDM9WT, Drug Conc. 5, Figure S12 A
  2^-dCq (H3K4me3 IP relative to H3): 4.852
chr3:165514798-165514911 Intragenic (BCHE), Empty Vector, Drug Conc. 5, Figure S12 D
  2^-dCq (H3K4me3 IP relative to H3): 0.9187
chr3:165514798-165514911 Intragenic (BCHE), PRDM9MUT, Drug Conc. 5, Figure S12 D
  2^-dCq (H3K4me3 IP relative to H3): 0.2392
chr3:165514798-165514911 Intragenic (BCHE), PRDM9WT, Drug Conc. 5, Figure S12 D
  2^-dCq (H3K4me3 IP relative to H3): 7.878
chr8:49932778-49932856 (Intergenic), Figure 7 B, Empty Vector, Drug Conc. 2.5
  H3K4me3 ChIP-qPCR 2^-dCq (IP-Input): 0.8281
chr8:49932778-49932856 (Intergenic), Figure 7 B, Empty Vector, Drug Conc. 5
  H3K4me3 ChIP-qPCR 2^-dCq (IP-Input): 1.029
chr8:49932778-49932856 (Intergenic), Figure 7 B, Empty Vector, Drug Conc. 10
  H3K4me3 ChIP-qPCR 2^-dCq (IP-Input): 0.9528
chr8:49932778-49932856 (Intergenic), Figure 7 B, PRDM9WT, Drug Conc. 2.5
  H3K4me3 ChIP-qPCR 2^-dCq (IP-Input): 8.6274
chr8:49932778-49932856 (Intergenic), Figure 7 B, PRDM9WT, Drug Conc. 5
  H3K4me3 ChIP-qPCR 2^-dCq (IP-Input): 4.182
chr8:49932778-49932856 (Intergenic), Figure 7 B, PRDM9WT, Drug Conc. 10
  H3K4me3 ChIP-qPCR 2^-dCq (IP-Input): 1.779
chr8:49932778-49932856 (Intergenic), Empty Vector, Drug Conc. 5, Figure S12 B
  2^-dCq (H3K4me3 IP relative to H3): 1.029
chr8:49932778-49932856 (Intergenic), PRDM9MUT, Drug Conc. 5, Figure S12 B
  2^-dCq (H3K4me3 IP relative to H3): 0.2948
chr8:49932778-49932856 (Intergenic), PRDM9WT, Drug Conc. 5, Figure S12 B
  2^-dCq (H3K4me3 IP relative to H3): 4.182
chr12:6643945-6644023 TSS (GAPDH), Empty Vector, Drug Conc. 5, Figure S12 E
  2^-dCq (H3K4me3 IP relative to H3): 83.0384
chr12:6643945-6644023 TSS (GAPDH), PRDM9MUT, Drug Conc. 5, Figure S12 E
  2^-dCq (H3K4me3 IP relative to H3): 72.3311
chr12:6643945-6644023 TSS (GAPDH), PRDM9WT, Drug Conc. 5, Figure S12 E
  2^-dCq (H3K4me3 IP relative to H3): 130.72
chr19:8510167-8510261 TSS (HNRNPM), Empty Vector, Drug Conc. 5, Figure S12 F
  2^-dCq (H3K4me3 IP relative to H3): 107.435
chr19:8510167-8510261 TSS (HNRNPM), PRDM9MUT, Drug Conc. 5, Figure S12 F
  2^-dCq (H3K4me3 IP relative to H3): 76.5131
chr19:8510167-8510261 TSS (HNRNPM), PRDM9WT, Drug Conc. 5, Figure S12 F
  2^-dCq (H3K4me3 IP relative to H3): 143.684
Drug Conc. 2.5
  <Cq>: 20.8229
Drug Conc. 5
  <Cq>: 20.8538
Drug Conc. 10
  <Cq>: 21.2288
